Among the data in US9169270B2, “1-phenyl-substituted heterocyclyl derivatives and their use as prostaglandin D2 receptor modulators” (Actelion Pharmaceuticals Ltd., priority 2012, dated 2015) are IC50 values, retold here.

For this test, the target named is hCRTH2 receptor (Homo sapiens (Human), UniProt Q9Y5Y4). As to the kind of experiment: hCRTH2 receptor membranes radioligand (3H-PGD2) displacement assay. Particulars: hCRTH2 membrane fragments, Binding-Buffer with 0.1% BSA. As to the method: Biological Assays: Preparation of hCRTH2 Receptor Membranes and Radioligand Displacement Assay:
First, recombinant HEK293-hCRTH2 cells were detached from culture plates into 5 ml buffer A/plate (Buffer A: 5 mM Tris, 1 mM MgCl2-6H2O pH=7.4) using a rubber policeman. Cells were then transferred into centrifugation tubes and centrifuged for 5 min at 400 g. The cell pellet was resuspended in the same buffer and tubes were frozen at −80° C. Cells were thawed and membrane fragments were generated by homogenization using a polytron homogenizer (30 seconds). The membrane fragments were then centrifuged at 3000 g for 20 minutes and resuspended in buffer C (Buffer C: 75 mM Tris, 25 mM MgCl2, 250 mM Saccharose pH 7.4). Aliquots of membrane fragments were stored at −20° C.
Binding assay was performed in a final assay volume of 250 μl. First, 25 μl of test compound, previously diluted in Binding-Buffer (Binding-Buffer: 50 mM Tris-Base, 100 mM NaCl, 1 mM EDTA, 0.1% BSA (protease free), 0.01% NaN3, 10 mM MnCl2, pH 7.0) was placed into each well. […] Binding assay was started by addition of 100 μl CRTH2 membrane fragments, reaching a final concentration of 20 μg/well. For non-specific binding, PGD2 was added to the reaction mixture to […] final concentration. This assay mix was incubated for 90 minutes at room temperature and then filtered through a GF/C filter 96-well plate which was pre-soaked for 3 hours in 0.5% polyethyleneimine (PEI). The filter-wells were washed three times with ice cold Binding-Buffer. Then, 40 μl of Microscint-40 (Packard) was added to each well and the retained radioactivity quantified in a Topcount (Packard).

Chain of hCRTH2 receptor (Q9Y5Y4 whole entry, the tested form may be a part): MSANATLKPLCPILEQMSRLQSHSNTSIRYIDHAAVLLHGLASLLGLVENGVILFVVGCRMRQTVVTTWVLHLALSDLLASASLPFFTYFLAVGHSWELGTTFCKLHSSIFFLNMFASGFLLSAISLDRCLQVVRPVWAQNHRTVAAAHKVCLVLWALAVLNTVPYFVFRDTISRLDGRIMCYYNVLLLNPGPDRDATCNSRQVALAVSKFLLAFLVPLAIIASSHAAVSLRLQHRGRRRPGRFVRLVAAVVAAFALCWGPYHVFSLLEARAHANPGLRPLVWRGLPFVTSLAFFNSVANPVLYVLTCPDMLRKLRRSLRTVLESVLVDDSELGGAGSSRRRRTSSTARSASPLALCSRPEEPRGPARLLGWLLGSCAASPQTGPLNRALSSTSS

A word on the IC50: it is the concentration needed to halve the response being measured. Lower therefore signals higher potency. In turn, `O=C(O)COc1ccc(Cl)cc1[C@@H]1c2scnc2CCN1C(=O)OCc1ccccc1F` [Example 75, (R)-4-(2-Carboxymethoxy-5-chloro-phenyl)-6,7-dihydro-4H-thiazolo[5,4-c]pyridine-5-carboxylic acid 2-fluoro-benzyl ester] displayed a concentration for half-maximal inhibition (IC50) of 0.6 nM.
Molecule `Cc1ccc(OCC(=O)N2CCc3ncsc3C2c2cc(Cl)ccc2OCC(=O)O)c(C)n1` (racemic) [Example 32, (±)-(4-Chloro-2-{5-[2-(2,6-dimethyl-pyridin-3-yloxy)-acetyl]-4,5,6,7-tetrahydro-thiazolo[5,4-c]pyridin-4-yl}-phenoxy)-acetic acid] came in with a half-inhibitory concentration (IC50) of 83.2 nM.
The value for `O=C(O)COc1ccc(Cl)cc1C1c2sc(NC(=O)C3CC3)nc2CCN1C(=O)OCc1ccccc1` (racemic) [Example 115, (±)-4-(2-Carboxymethoxy-5-chloro-phenyl)-2-(cyclopropanecarbonyl-amino)-6,7-dihydro-4H-thiazolo[5,4-c]pyridine-5-carboxylic acid benzyl ester] was 491 nM; that for `C[C@H](Oc1ccc(Cl)cc1C1c2scnc2CCN1C(=O)OCc1ccccc1)C(=O)O` (mixture of isomers) [Example 120, (±)-4-[2-((S)-1-Carboxy-ethoxy)-5-chloro-phenyl]-6,7-dihydro-4H-thiazolo[5,4-c]pyridine-5-carboxylic acid benzyl ester] was 64.4 nM.
For `Cc1[nH]c2ccccc2c1CCC(=O)N1CCc2ncsc2C1c1cc(Cl)ccc1OCC(=O)O` (racemic) [Example 27, (±)-(4-Chloro-2-{5-[3-(2-methyl-1H-indol-3-yl)-propionyl]-4,5,6,7-tetrahydro-thiazolo[5,4-c]pyridin-4-yl}-phenoxy)-acetic acid], the IC50 amounted to 219 nM.
The molecule `O=C(O)COc1ccc(Cl)cc1[C@@H]1c2scnc2CCN1C(=O)OCc1cc(F)ccc1Cl` [Example 64, (R)-4-(2-Carboxymethoxy-5-chloro-phenyl)-6,7-dihydro-4H-thiazolo[5,4-c]pyridine-5-carboxylic acid 2-chloro-5-fluoro-benzyl ester] had an IC50 of 0.3 nM.
Turning to `O=C(O)COc1ccc(Cl)cc1C1c2scnc2CCN1C(=O)C1Cc2ccccc2C1` (racemic) [Example 36, (±)-{4-Chloro-2-[5-(indane-2-carbonyl)-4,5,6,7-tetrahydro-thiazolo[5,4-c]pyridin-4-yl]-phenoxy}-acetic acid], the IC50 is 733 nM. Against the preceding molecule, the IC50 is about 2400-fold higher.
In turn, `O=C(O)COc1ccc(Cl)cc1C1c2scnc2CCN1C(=O)/C=C/c1ccccc1` (racemic) [Example 45, (±)-(4-Chloro-2-{5-[(E)-(3-phenyl-acryloyl)]-4,5,6,7-tetrahydro-thiazolo[5,4-c]pyridin-4-yl}-phenoxy)-acetic acid] displayed an IC50 of 59.6 nM.
`COc1ccc2[nH]cc(CCC(=O)N3CCc4ncsc4C3c3cc(Cl)ccc3OCC(=O)O)c2c1` (racemic) [Example 26, (±)-(4-Chloro-2-{5-[3-(5-methoxy-1H-indol-3-yl)-propionyl]-4,5,6,7-tetrahydro-thiazolo[5,4-c]pyridin-4-yl}-phenoxy)-acetic acid] showed a half-maximal inhibitory concentration (IC50) of 45.1 nM.
The molecule `Cc1ccc(COC(=O)N2CCc3ncsc3[C@H]2c2cc(Cl)ccc2OCC(=O)O)c(C)c1` [Example 63, (R)-4-(2-Carboxymethoxy-5-chloro-phenyl)-6,7-dihydro-4H-thiazolo[5,4-c]pyridine-5-carboxylic acid 2,4-dimethyl-benzyl ester] returned a half-maximal inhibitory concentration (IC50) of 0.9 nM.
The value for `O=C(O)COc1ccc(Cl)cc1C1c2scnc2CCN1C(=O)OCc1cccc(Cl)c1Cl` (racemic) [Example 81, (±)-4-(2-Carboxymethoxy-5-chloro-phenyl)-6,7-dihydro-4H-thiazolo[5,4-c]pyridine-5-carboxylic acid 2,3-dichloro-benzyl ester] was 1.2 nM; that for `O=C(O)COc1ccc(Cl)cc1C1c2scnc2CCN1C(=O)OCc1ccc(Cl)cc1` (racemic) [Example 86, (±)-4-(2-Carboxymethoxy-5-chloro-phenyl)-6,7-dihydro-4H-thiazolo[5,4-c]pyridine-5-carboxylic acid 4-chloro-benzyl ester] was 1.7 nM.
In the case of `O=C(O)COc1ccc(Cl)cc1C1c2scnc2CCN1C(=O)CCCc1ccccc1F` (racemic) [Example 30, (±)-(4-Chloro-2-{5-[4-(2-fluoro-phenyl)-butyryl]-4,5,6,7-tetrahydro-thiazolo[5,4-c]pyridin-4-yl}-phenoxy)-acetic acid], the half-inhibitory concentration (IC50) came out at 8.1 nM.
The value for `C[C@@H](CC(=O)N1CCc2ncsc2C1c1cc(Cl)ccc1OCC(=O)O)c1ccccc1` (mixture of isomers) [Example 35, (±)-{4-Chloro-2-[5-((S)-3-phenyl-butyryl)-4,5,6,7-tetrahydro-thiazolo[5,4-c]pyridin-4-yl]-phenoxy}-acetic acid] was 355 nM.
With `CCCc1nc2c(s1)C(c1cc(Cl)ccc1OCC(=O)O)N(C(=O)OCc1ccccc1)CC2` (racemic) [Example 111, (±)-4-(2-Carboxymethoxy-5-chloro-phenyl)-2-propyl-6,7-dihydro-4H-thiazolo[5,4-c]pyridine-5-carboxylic acid benzyl ester], the IC50 came to 86.4 nM.
Regarding `O=C(O)COc1ccc(Cl)cc1[C@@H]1c2scnc2CCN1C(=O)OCc1cc(F)ccc1F` [Example 58, (R)-4-(2-Carboxymethoxy-5-chloro-phenyl)-6,7-dihydro-4H-thiazolo[5,4-c]pyridine-5-carboxylic acid 2,5-difluoro-benzyl ester], the half-maximal inhibitory concentration (IC50) was 1 nM.
With `O=C(O)COc1ccc(Cl)cc1C1c2scnc2CCN1C(=O)OCn1ncc2ccccc21` (racemic) [Example 90, (±)-4-(2-Carboxymethoxy-5-chloro-phenyl)-6,7-dihydro-4H-thiazolo[5,4-c]pyridine-5-carboxylic acid indazol-1-ylmethyl ester] the figure was 1.6 nM.
With `O=C(O)COc1ccc(Cl)cc1[C@@H]1c2scnc2CCN1C(=O)[C@H]1C[C@@H]1c1ccc(F)cc1` [Example 9, (4-Chloro-2-{(R)-5-[(1S,2S)-2-(4-fluoro-phenyl)-cyclopropanecarbonyl]-4,5,6,7-tetrahydro-thiazolo[5,4-c]pyridin-4-yl}-phenoxy)-acetic acid] the figure was 462 nM; with `CC(=O)Nc1nc2c(s1)C(c1cc(Cl)ccc1OCC(=O)O)N(C(=O)OCc1ccccc1)CC2` (racemic) [Example 116, (±)-2-Acetylamino-4-(2-carboxymethoxy-5-chloro-phenyl)-6,7-dihydro-4H-thiazolo[5,4-c]pyridine-5-carboxylic acid benzyl ester], 857 nM.
Regarding `O=C(O)COc1ccc(Cl)cc1C1c2scnc2CCN1C(=O)OCc1cc(F)ccc1F` (racemic) [Example 93, (±)-4-(2-Carboxymethoxy-5-chloro-phenyl)-6,7-dihydro-4H-thiazolo[5,4-c]pyridine-5-carboxylic acid 2,5-difluoro-benzyl ester], the half-inhibitory concentration (IC50) worked out at 1.3 nM.
Turning to `CC(C)CCOC(=O)N1CCc2ncsc2[C@H]1c1cc(Cl)ccc1OCC(=O)O` [Example 67, (R)-4-(2-Carboxymethoxy-5-chloro-phenyl)-6,7-dihydro-4H-thiazolo[5,4-c]pyridine-5-carboxylic acid 3-methyl-butyl ester], the IC50 amounted to 0.4 nM. This IC50 is about 3.2-fold lower than that of the molecule before.
The value for `CCC(C)(C)COC(=O)N1CCc2ncsc2[C@H]1c1cc(Cl)ccc1OCC(=O)O` [Example 60, (R)-4-(2-Carboxymethoxy-5-chloro-phenyl)-6,7-dihydro-4H-thiazolo[5,4-c]pyridine-5-carboxylic acid 2,2-dimethyl-butyl ester] was 2 nM; that for `O=C(O)COc1ccc(Cl)cc1C1c2scnc2CCN1C(=O)CC1CC1` (racemic) [Example 41, (±)-{4-Chloro-2-[5-(2-cyclopropyl-acetyl)-4,5,6,7-tetrahydro-thiazolo[5,4-c]pyridin-4-yl]-phenoxy}-acetic acid] was 83.9 nM.
With `O=C(O)COc1ccc(Cl)cc1C1c2scnc2CCN1C(=O)CCOc1ccc(F)cc1` (racemic) [Example 21, (±)-(4-Chloro-2-{5-[3-(4-fluoro-phenoxy)-propionyl]-4,5,6,7-tetrahydro-thiazolo[5,4-c]pyridin-4-yl}-phenoxy)-acetic acid] the figure was 19.6 nM; with `Cc1cccc(COC(=O)N2CCc3ncsc3[C@H]2c2cc(Cl)ccc2OCC(=O)O)c1C` [Example 72, (R)-4-(2-Carboxymethoxy-5-chloro-phenyl)-6,7-dihydro-4H-thiazolo[5,4-c]pyridine-5-carboxylic acid 2,3-dimethyl-benzyl ester], 1.2 nM; with `Cc1nc2c(s1)[C@@H](c1cc(Cl)ccc1OCC(=O)O)N(C(=O)OCc1ccccc1)CC2` [Example 19, (R)-4-(2-Carboxymethoxy-5-chloro-phenyl)-2-methyl-6,7-dihydro-4H-thiazolo[5,4-c]pyridine-5-carboxylic acid benzyl ester], 4.71 nM.
`O=C(O)COc1ccc(Cl)cc1C1c2scnc2CCN1C(=O)Cc1ccc2ccccc2c1` (racemic) [Example 49, (±)-{4-Chloro-2-[5-(2-naphthalen-2-yl-acetyl)-4,5,6,7-tetrahydro-thiazolo[5,4-c]pyridin-4-yl]-phenoxy}-acetic acid] yielded a 50% inhibitory concentration (IC50) of 15.8 nM.
